Where only a bound is given, the exact number is not on record here.

Data set [1] deals with Sprague-Dawley rats. Put plainly: Pharmacological characteristics at equivalent doses (2ED50), Group A compounds. Type of data set: in vivo. The following applies: 2ED50, tail vein.
Data set [2] relates to Sprague-Dawley rats. Put plainly: animal or person. As for the experimental part: (§1) Adult male Sprague-Dawley rats (250-300 g) were selected for the experiment. […] The anesthesia effects of the compounds were assessed in rats using a LORR assay and a period >30 s was considered as an indicator of general anesthesia.
Data set [3] concerns H295R cell line. Briefly: Adrenocortical function in vitro test: secretion of cortisol and corticosterone, Group A compounds. It counts as cell-based. As to conditions: H295 cells; for EC50: Homo sapiens, 0.1-10000 nM, HPLC-MS/MS.
Data set [4] concerns Sprague-Dawley rats. Put plainly: animal or person. As to conditions: for ED50: LORR in rats, tail vein, brackets = 95% confidence limit; for Approximate therapeutic index / Minimal lethal dose: rats. The protocol:
as §1

For data set [5], the system named is H295R cell line. Put plainly: Adrenocortical function in vitro test: secretion of cortisol and corticosterone, Group B compounds. Type of data set: cell-based. As to conditions: H295R cells; for EC50: 0.1-10000 nM, HPLC-MS/MS.
Where [6] appears, read: read-out: EC50 (Corticosterone).
Where [7] appears, read: Homo sapiens, NCI-H295R, read-out: EC50 (Corticosterone).
The mark [8] stands for this setting: Homo sapiens, NCI-H295R, read-out: EC50 (Cortisol).

As usually defined, the ED50 is the dose that gives a 50% effect, or the effect in half of the subjects. Lower therefore signals greater potency. By EC50 is commonly meant the midpoint of the concentration-response curve. With `CCOC(=O)c1ccnn1[C@H](C)c1ccccc1` [Compound A1], in data set [1], the Onset time worked out at 0.56 ± 0.26 min and the Righting reflex duration was determined as 2.24 ± 1.29 min. For the same compound, in data set [2] (Rattus norvegicus), the ED50 was in the range of 1 to 2 mg/kg. In data set [2] (rats), this compound registered an Approximate therapeutic index greater than 8 and a Minimal lethal dose greater than 16 mg/kg. In data set [3], the “Corticosterone as an indicator to determine the presence of inhibition” value (from here on “Corticosterone as an indicator … of inhibition”) turned out to be 0 and the “Cortisol as an indicator to determine the presence of inhibition” value (“Cortisol as an indicator … of inhibition” below) turned out to be 0. Moreover, in data set [3] (setting [6]), the EC50 was greater than 1000 nM. In data set [3] (read-out: EC50 (Cortisol)), the EC50 is greater than 1000 nM.
With `C=C=CC1(OC(=O)c2c(Br)nnn2[C@H](C)c2ccccc2)COC1` [Compound B101], in data set [4], the 50% effective dose (ED50) result is listed as “C (C indicates that the measured ED50 is in the range of 1.00-2.00 mg/kg (excluding 1.00 mg/kg, including 2.00 mg/kg))”; the Approximate therapeutic index is greater than 7; the Minimal lethal dose is greater than 13 mg/kg. Further, in data set [5], the “Corticosterone as an indicator … of inhibition” value was 0 and the “Cortisol as an indicator … of inhibition” value came to 0. In addition, the EC50 in data set [5] (setting [6]) was greater than 1000 nM. Moreover, the 50% effective concentration (EC50) in data set [5] (read-out: EC50 (Cortisol)) was greater than 1000 nM.
In the case of `C[C@H](c1ccccc1)n1nnc(Br)c1C(=O)OC1CCC1` [Compound B104], in data set [4], the ED50 entry is given as “C (C indicates that the measured ED50 is in the range of 1.00-2.00 mg/kg (excluding 1.00 mg/kg, including 2.00 mg/kg))”; the Approximate therapeutic index is recorded as greater than 10; the Minimal lethal dose is recorded as greater than 11 mg/kg. In data set [5], the “Corticosterone as an indicator … of inhibition” value is 0 and the “Cortisol as an indicator … of inhibition” value is on record as 0. Besides, in data set [5] (setting [6]), the EC50 was greater than 3000 nM. The EC50 in data set [5] (read-out: EC50 (Cortisol)) was greater than 3000 nM.
As for `C=CCOC(=O)c1c(Br)nnn1[C@H](C)c1ccccc1` [Compound B108], in data set [4], the ED50 result is given as “B (B indicates that the measured ED50 is in the range of 0.50-1.00 mg/kg (excluding 0.50 mg/kg, including 1.00 mg/kg))”; the Approximate therapeutic index is given as greater than 20; the Minimal lethal dose was greater than 14 mg/kg. Also, in data set [5], the “Corticosterone as an indicator … of inhibition” value worked out at 0 and the “Cortisol as an indicator … of inhibition” value was 0. Further, in data set [5] (setting [6]), the EC50 was greater than 3000 nM. Besides, the EC50 in data set [5] (read-out: EC50 (Cortisol)) is greater than 3000 nM.
`C[C@H](c1ccccc1)n1nnc(Br)c1C(=O)OC(C)(C)C` [Compound B110]: in data set [4], the ED50 result was “D (D indicates that the measured ED50 is in the range of 2.00-10.00 mg/kg (excluding 2.00 mg/kg, including 10.00 mg/kg))”; the Approximate therapeutic index is recorded as greater than 7; the Minimal lethal dose is recorded as greater than 16 mg/kg. In data set [5], the “Corticosterone as an indicator … of inhibition” value is recorded as 0 and the “Cortisol as an indicator … of inhibition” value was determined as 0. The EC50 in data set [5] (setting [6]) was greater than 3000 nM. In data set [5] (read-out: EC50 (Cortisol)), the EC50 is greater than 3000 nM.
`CC(C)OC(=O)c1c(Br)nnn1[C@H](C)c1ccccc1` [Compound B115] returned a 50% effective dose (ED50) in data set [4] (Rattus norvegicus) of 0.5 to 1 mg/kg. Also, in data set [4], the Approximate therapeutic index was greater than 25 and the Minimal lethal dose is given as greater than 18 mg/kg. In addition, in data set [5], the “Corticosterone as an indicator … of inhibition” value worked out at 0 and the “Cortisol as an indicator … of inhibition” value is on record as 0. In data set [5] (setting [7]), the EC50 was greater than 3000 nM. Also, the EC50 in data set [5] (setting [8]) is greater than 3000 nM.
`C[C@H](c1ccccc1)n1nnc(Br)c1C(=O)OC1CC1` [Compound B116]: in data set [4] (Rattus norvegicus), the ED50 lay within 1 to 2 mg/kg. Also, in data set [4], the Approximate therapeutic index is greater than 9 and the Minimal lethal dose was greater than 12 mg/kg. Besides, in data set [5], the “Corticosterone as an indicator … of inhibition” value is on record as 0 and the “Cortisol as an indicator … of inhibition” value came to 0. Moreover, the EC50 in data set [5] (setting [7]) was greater than 3000 nM. For the same compound, the EC50 in data set [5] (setting [8]) is greater than 3000 nM.
`CCSC(=O)c1c(Br)nnn1[C@H](C)c1ccccc1` [Compound B120]: in data set [4] (Rattus norvegicus), the ED50 was in the range of 0.5 to 1 mg/kg. In data set [4], this compound displayed an Approximate therapeutic index greater than 21 and a Minimal lethal dose greater than 15 mg/kg. In data set [5], the “Corticosterone as an indicator … of inhibition” value was determined as 0 and the “Cortisol as an indicator … of inhibition” value was found to be 0. Further, the EC50 in data set [5] (setting [7]) was greater than 1000 nM. Also, the EC50 in data set [5] (setting [8]) is greater than 1000 nM.
Consider `COC(=O)C1(OC(=O)c2c(Br)nnn2[C@H](C)c2ccccc2)CC1` [Compound B121], for which the ED50 in data set [4] (Rattus norvegicus) was in the range of 2 to 10 mg/kg. In data set [4], this compound returned an Approximate therapeutic index greater than 3 and a Minimal lethal dose greater than 20 mg/kg. Moreover, in data set [5], the “Corticosterone as an indicator … of inhibition” value worked out at 0 and the “Cortisol as an indicator … of inhibition” value stood at 0. In addition, the concentration giving a half-maximal response (EC50) in data set [5] (setting [7]) is greater than 1000 nM. In data set [5] (setting [8]), the EC50 was greater than 1000 nM.
Compound `CCOC(=O)c1c(I)nnn1[C@H](C)c1ccccc1` [Compound B127] yielded an ED50 in data set [4] (Rattus norvegicus) of 0.5 to 1 mg/kg. In data set [4], this compound came in with an Approximate therapeutic index greater than 23 and a Minimal lethal dose greater than 16 mg/kg. In data set [5], the “Corticosterone as an indicator … of inhibition” value turned out to be 0 and the “Cortisol as an indicator … of inhibition” value is 0. The EC50 in data set [5] (setting [7]) is greater than 3000 nM. For the same compound, the EC50 in data set [5] (setting [8]) is greater than 3000 nM.
Take `C[C@H](c1ccccc1)n1nnc(I)c1C(=O)OC1CCC1` [Compound B132]: in data set [4] (Rattus norvegicus), the ED50 lay within 0.5 to 1 mg/kg. In data set [4], this compound had an Approximate therapeutic index greater than 16 and a Minimal lethal dose greater than 12 mg/kg. In addition, in data set [5], the “Corticosterone as an indicator … of inhibition” value was 0 and the “Cortisol as an indicator … of inhibition” value was 0. In addition, the EC50 in data set [5] (setting [7]) is greater than 1000 nM. Besides, the EC50 in data set [5] (setting [8]) is greater than 1000 nM.
`C[C@H](c1ccccc1)n1nnc(I)c1C(=O)OCC1CC1` [Compound B133] came in with an ED50 in data set [4] (Rattus norvegicus) of 0.5 to 1 mg/kg. In data set [4], this compound yielded an Approximate therapeutic index greater than 20 and a Minimal lethal dose greater than 14 mg/kg. Further, in data set [5], the “Corticosterone as an indicator … of inhibition” value turned out to be 0 and the “Cortisol as an indicator … of inhibition” value is 0. Besides, in data set [5] (setting [7]), the EC50 was greater than 1000 nM. In data set [5] (setting [8]), the EC50 was greater than 1000 nM.
Turning to `C=CCOC(=O)c1c(I)nnn1[C@H](C)c1ccccc1` [Compound B136], in data set [4], the 50% effective dose (ED50) result is given as “D (D indicates that the measured ED50 is in the range of 2.00-10.00 mg/kg (excluding 2.00 mg/kg, including 10.00 mg/kg))”; the Approximate therapeutic index is recorded as greater than 6; the Minimal lethal dose is recorded as greater than 18 mg/kg. Also, in data set [5], the “Corticosterone as an indicator … of inhibition” value is on record as 0 and the “Cortisol as an indicator … of inhibition” value amounted to 0. In addition, in data set [5] (setting [6]), the EC50 was greater than 1000 nM. The EC50 in data set [5] (read-out: EC50 (Cortisol)) was greater than 1000 nM.
In data set [4] (Rattus norvegicus), `C=C=CC1(OC(=O)c2c(I)nnn2[C@H](C)c2ccccc2)CCCCC1` [Compound B137] returned an ED50 of 1 to 2 mg/kg. In data set [4], this compound gave an Approximate therapeutic index greater than 9 and a Minimal lethal dose greater than 12 mg/kg. Further, in data set [5], the “Corticosterone as an indicator … of inhibition” value was 0 and the “Cortisol as an indicator … of inhibition” value was 0. For the same compound, the concentration for a half-maximal effect (EC50) in data set [5] (setting [7]) is greater than 1000 nM. Further, the half-maximal effective concentration (EC50) in data set [5] (setting [8]) is greater than 1000 nM.
`C[C@H](c1ccccc1)n1nnc(I)c1C(=O)OC1(C)COC1` [Compound B140] returned a median effective dose (ED50) in data set [4] (Rattus norvegicus) of 10 to 20 mg/kg. In data set [4], this compound had an Approximate therapeutic index greater than 2 and a Minimal lethal dose greater than 30 mg/kg. Moreover, in data set [5], the “Corticosterone as an indicator … of inhibition” value was 0 and the “Cortisol as an indicator … of inhibition” value worked out at 0. Moreover, the EC50 in data set [5] (setting [7]) was greater than 1000 nM. For the same compound, the EC50 in data set [5] (setting [8]) was greater than 1000 nM.
`C[C@H](c1ccccc1)n1nnc(I)c1C(=O)OC1CC1` [Compound B144]: in data set [4] (Rattus norvegicus), the ED50 lay within 10 to 20 mg/kg. Further, in data set [4], the Approximate therapeutic index is greater than 2 and the Minimal lethal dose is reported as greater than 24 mg/kg. Moreover, in data set [5], the “Corticosterone as an indicator … of inhibition” value was 0 and the “Cortisol as an indicator … of inhibition” value is 0. The EC50 in data set [5] (setting [7]) is greater than 1000 nM. Further, in data set [5] (setting [8]), the EC50 is greater than 1000 nM.
In the case of `CCOC(=O)c1c(C(F)(F)F)nnn1[C@H](C)c1ccccc1` [Compound B145], the ED50 in data set [4] (Rattus norvegicus) lay within 2 to 10 mg/kg. In data set [4], this compound came in with an Approximate therapeutic index greater than 4 and a Minimal lethal dose greater than 18 mg/kg. In data set [5], the “Corticosterone as an indicator … of inhibition” value is on record as 0 and the “Cortisol as an indicator … of inhibition” value was determined as 0. Also, the EC50 in data set [5] (setting [7]) is greater than 3000 nM. The EC50 in data set [5] (setting [8]) is greater than 3000 nM.
On to `CCOC(=O)c1nnn([C@H](C)c2ccccc2)c1C(F)(F)F` [Compound B146], for which, in data set [4], the ED50 result is listed as “C (C indicates that the measured ED50 is in the range of 1.00-2.00 mg/kg (excluding 1.00 mg/kg, including 2.00 mg/kg))”; the Approximate therapeutic index is given as greater than 8; the Minimal lethal dose is given as greater than 14 mg/kg. Also, in data set [5], the “Corticosterone as an indicator … of inhibition” value came out at 0 and the “Cortisol as an indicator … of inhibition” value came to 0. For the same compound, in data set [5] (setting [6]), the EC50 is greater than 3000 nM. Further, the EC50 in data set [5] (read-out: EC50 (Cortisol)) was greater than 3000 nM.

The values above are taken from patent US12570612B2, “Substituted nitrogen heterocyclic compound and anesthetic effect thereof” (priority 2019, dated 2026).
